# In the supplement of paper PMC10307832:
# Columns and labels:
# Assay in all cases: relative viability (nuclei count vs DMSO), 5 days (fraction); higher = more cells survive
# NCI-H441 = tested on: NCI-H441
# In short: (§1)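 A single step with final 0.05% Triton X-100, 1% formaldehyde and 1 ug/ml Hoechst fixed the cells and stained nuclei 5 days after treatment. Lung cancer cell lines in 1536-well plates had been treated by pin tool the day after seeding with one drug alone or a fixed anchor-drug dose plus five library-drug doses (not always all listed) in √10 steps, and nuclei were counted on 4× images. Relative viability is the ratio of nuclei in treated wells to nuclei in vehicle wells, taken as the median of duplicate plates.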
# NCI-H2087 = tested on: NCI-H2087
# In short: as §1
# BEN = tested on: BEN
# In short: as §1
# NCI-H727 = tested on: NCI-H727
# In short: as §1
# NCI-H596 = tested on: NCI-H596
# In short: as §1
# NCI-H2126 = tested on: NCI-H2126
# In short: as §1
# NCI-H522 = tested on: NCI-H522
# In short: as §1
# NCI-H3122 = tested on: NCI-H3122
# In short: as §1
# EMC-BAC-2 = tested on: EMC-BAC-2
# In short: as §1
# NCI-H647 = tested on: NCI-H647
# In short: as §1
# NCI-H2347 = tested on: NCI-H2347
# In short: as §1
# NCI-H1993 = tested on: NCI-H1993
# In short: as §1
# HARA = tested on: HARA
# In short: as §1
# HCC-44 = tested on: HCC-44
# In short: as §1
# 201T = tested on: 201T
# In short: as §1
# NCI-H23 = tested on: NCI-H23
# In short: as §1
# NCI-H650 = tested on: NCI-H650
# In short: as §1
# NCI-H2023 = tested on: NCI-H2023
# In short: as §1
# NCI-H838 = tested on: NCI-H838
# In short: as §1
# LOU-NH91 = tested on: LOU-NH91
# In short: as §1
# LCLC-103H = tested on: LCLC-103H
# In short: as §1
# NCI-H1395 = tested on: NCI-H1395
# In short: as §1
structure (smiles),measurement,setting,value
COc1cc2nccc(Oc3ccc(NC(=O)Nc4cc(C)on4)c(Cl)c3)c2cc1OC [Tivozanib] + COc1cccc2cc(-c3nc([C@H]4CC[C@H](C(=O)O)CC4)n4ncnc(N)c34)[nH]c12 [OSI-027] (partner 0.5 µM),relative viability,NCI-H441; first compound 0.005 µM,0.453
same,relative viability,NCI-H441; first compound 0.01581 µM,0.506
same,relative viability,NCI-H441; first compound 0.05 µM,0.78
same,relative viability,NCI-H441; first compound 0.1581 µM,0.563
same,relative viability,NCI-H441; first compound 0.5 µM,0.344
same,relative viability,NCI-H2087; first compound 0.005 µM,0.461
same,relative viability,NCI-H2087; first compound 0.01581 µM,0.6
same,relative viability,NCI-H2087; first compound 0.05 µM,0.558
same,relative viability,NCI-H2087; first compound 0.1581 µM,0.376
same,relative viability,NCI-H2087; first compound 0.5 µM,0.44
same,relative viability,BEN; first compound 0.005 µM,0.281
same,relative viability,BEN; first compound 0.01581 µM,0.306
same,relative viability,BEN; first compound 0.05 µM,0.311
same,relative viability,BEN; first compound 0.1581 µM,0.298
same,relative viability,BEN; first compound 0.5 µM,0.318
same,relative viability,NCI-H727; first compound 0.005 µM,0.501
same,relative viability,NCI-H727; first compound 0.01581 µM,0.799
same,relative viability,NCI-H727; first compound 0.05 µM,0.688
same,relative viability,NCI-H727; first compound 0.1581 µM,0.434
same,relative viability,NCI-H727; first compound 0.5 µM,0.68
same,relative viability,NCI-H596; first compound 0.005 µM,0.681
same,relative viability,NCI-H596; first compound 0.01581 µM,0.596
same,relative viability,NCI-H596; first compound 0.05 µM,0.866
same,relative viability,NCI-H596; first compound 0.5 µM,0.59
same,relative viability,NCI-H2126; first compound 0.005 µM,0.655
same,relative viability,NCI-H2126; first compound 0.01581 µM,0.701
same,relative viability,NCI-H2126; first compound 0.05 µM,0.776
same,relative viability,NCI-H2126; first compound 0.5 µM,0.691
same,relative viability,NCI-H522; first compound 0.005 µM,0.722
same,relative viability,NCI-H522; first compound 0.01581 µM,0.788
same,relative viability,NCI-H522; first compound 0.05 µM,0.783
same,relative viability,NCI-H522; first compound 0.1581 µM,0.677
same,relative viability,NCI-H522; first compound 0.5 µM,0.604
same,relative viability,NCI-H3122; first compound 0.005 µM,0.971
same,relative viability,NCI-H3122; first compound 0.01581 µM,0.98
same,relative viability,NCI-H3122; first compound 0.05 µM,1.05
same,relative viability,NCI-H3122; first compound 0.1581 µM,0.859
same,relative viability,NCI-H3122; first compound 0.5 µM,0.925
same,relative viability,EMC-BAC-2; first compound 0.005 µM,0.372
same,relative viability,EMC-BAC-2; first compound 0.01581 µM,0.385
same,relative viability,EMC-BAC-2; first compound 0.05 µM,0.38
same,relative viability,EMC-BAC-2; first compound 0.1581 µM,0.279
same,relative viability,EMC-BAC-2; first compound 0.5 µM,0.334
same,relative viability,NCI-H647; first compound 0.005 µM,0.74
same,relative viability,NCI-H647; first compound 0.01581 µM,0.618
same,relative viability,NCI-H647; first compound 0.05 µM,0.728
same,relative viability,NCI-H647; first compound 0.1581 µM,0.526
same,relative viability,NCI-H647; first compound 0.5 µM,0.658
same,relative viability,NCI-H2347; first compound 0.01581 µM,0.373
same,relative viability,NCI-H2347; first compound 0.05 µM,0.262
same,relative viability,NCI-H2347; first compound 0.5 µM,0.408
same,relative viability,NCI-H1993; first compound 0.005 µM,0.503
same,relative viability,NCI-H1993; first compound 0.01581 µM,0.534
same,relative viability,NCI-H1993; first compound 0.05 µM,0.543
same,relative viability,NCI-H1993; first compound 0.1581 µM,0.518
same,relative viability,NCI-H1993; first compound 0.5 µM,0.429
same,relative viability,HARA; first compound 0.005 µM,0.549
same,relative viability,HARA; first compound 0.01581 µM,0.481
same,relative viability,HARA; first compound 0.05 µM,0.65
same,relative viability,HARA; first compound 0.1581 µM,0.196
same,relative viability,HARA; first compound 0.5 µM,0.28
same,relative viability,HCC-44; first compound 0.005 µM,0.483
same,relative viability,HCC-44; first compound 0.01581 µM,0.544
same,relative viability,HCC-44; first compound 0.05 µM,0.485
same,relative viability,HCC-44; first compound 0.1581 µM,0.41
same,relative viability,HCC-44; first compound 0.5 µM,0.464
same,relative viability,201T; first compound 0.005 µM,0.777
same,relative viability,201T; first compound 0.01581 µM,0.798
same,relative viability,201T; first compound 0.05 µM,0.36
same,relative viability,201T; first compound 0.1581 µM,0.572
same,relative viability,201T; first compound 0.5 µM,0.709
same,relative viability,NCI-H23; first compound 0.005 µM,0.578
same,relative viability,NCI-H23; first compound 0.01581 µM,0.595
same,relative viability,NCI-H23; first compound 0.05 µM,0.671
same,relative viability,NCI-H23; first compound 0.1581 µM,0.355
same,relative viability,NCI-H23; first compound 0.5 µM,0.367
same,relative viability,NCI-H650; first compound 0.005 µM,0.489
same,relative viability,NCI-H650; first compound 0.01581 µM,0.577
same,relative viability,NCI-H650; first compound 0.05 µM,0.613
same,relative viability,NCI-H650; first compound 0.1581 µM,0.44
same,relative viability,NCI-H650; first compound 0.5 µM,0.398
same,relative viability,NCI-H2023; first compound 0.005 µM,0.393
same,relative viability,NCI-H2023; first compound 0.01581 µM,0.386
same,relative viability,NCI-H2023; first compound 0.05 µM,0.381
same,relative viability,NCI-H2023; first compound 0.1581 µM,0.272
same,relative viability,NCI-H2023; first compound 0.5 µM,0.324
same,relative viability,NCI-H838; first compound 0.005 µM,0.364
same,relative viability,NCI-H838; first compound 0.01581 µM,0.404
same,relative viability,NCI-H838; first compound 0.05 µM,0.357
same,relative viability,NCI-H838; first compound 0.5 µM,0.38
same,relative viability,LOU-NH91; first compound 0.005 µM,0.695
same,relative viability,LOU-NH91; first compound 0.01581 µM,0.807
same,relative viability,LOU-NH91; first compound 0.05 µM,0.762
same,relative viability,LOU-NH91; first compound 0.1581 µM,0.61
same,relative viability,LOU-NH91; first compound 0.5 µM,0.729
same,relative viability,LCLC-103H; first compound 0.005 µM,0.475
same,relative viability,LCLC-103H; first compound 0.01581 µM,0.481
same,relative viability,LCLC-103H; first compound 0.05 µM,0.423
same,relative viability,LCLC-103H; first compound 0.1581 µM,0.369
same,relative viability,LCLC-103H; first compound 0.5 µM,0.498
same,relative viability,NCI-H1395; first compound 0.005 µM,0.52
same,relative viability,NCI-H1395; first compound 0.01581 µM,0.635
same,relative viability,NCI-H1395; first compound 0.05 µM,0.648
same,relative viability,NCI-H1395; first compound 0.1581 µM,0.546
same,relative viability,NCI-H1395; first compound 0.5 µM,0.528
